Patent US20120294879A1, “CONSENSUS SEQUENCE FOR INFLUENZA A VIRUS” (priority 2009, published 2012)

Experiments:
Assay type in all cases: cell-based
[1] = test system: splenocytes of HLA-DR3 (DRB1*0301) transgenic mice; set-up: key to DR3: average IFN-γ spots forming cells per million splenocytes: — represents no positive ELISpot response
[2] = test system: splenocytes of HLA-B7 (B*0702) transgenic mice; set-up: key to B7: average IFN-γ spots forming cells per million splenocytes: — represents no positive ELISpot response
[3] = test system: splenocytes of HLA-A24 (A*2402) transgenic mice; set-up: key to A24: average IFN-γ spots forming cells per million splenocytes: — represents no positive ELISpot response
[4] = test system: splenocytes of HLA-DR4 (DRB1*0401) transgenic mice; set-up: key: — represents no positive ELISpot response
[5] = test system: splenocytes of HLA-DR2 (DRB1*1501) transgenic mice; set-up: key to DR2: average IFN-γ spots forming cells per million splenocytes: — represents no positive ELISpot response

Sequence	DR3: average IFN-γ spots forming cells per million splenocytes [1]	DR3: lowest concentration of peptide giving positive ELISpot response in peptide titration [1]	B7: average IFN-γ spots forming cells per million splenocytes [2]	A24: average IFN-γ spots forming cells per million splenocytes [3]	DR4: average IFN-γ spots forming cells per million splenocytes [4]	DR2: average IFN-γ spots forming cells per million splenocytes [5]	DR2: lowest concentration of peptide giving positive ELISpot response in peptide titration [5]	A24: lowest concentration of peptide giving positive ELISpot response in peptide titration [3]
LLRHFQKDAKVLFLNWG	444 ± 14(0.1) IFN-γ spots forming cells per million splenocytes	444 ± 14(0.1) μg/ml	—	—	—	—		
LPDMTPSTEMSMRGVRV	324 ± 28(0.1) IFN-γ spots forming cells per million splenocytes	324 ± 28(0.1) μg/ml	—	—	—	—		
LQLFIKDYRYTYRCHRG	230 ± 23(0.1) IFN-γ spots forming cells per million splenocytes	230 ± 23(0.1) μg/ml	—	—	97 ± 30(0.1) IFN-γ spots forming cells per million splenocytes	61 ± 2(1) IFN-γ spots forming cells per million splenocytes	61 ± 2(1) μg/ml	
LTHIMIWHSNLNDTTYQ	—		—	—	—	238 ± 59(0.1) IFN-γ spots forming cells per million splenocytes	238 ± 59(0.1) μg/ml	
MELPSFGVSGVNESADM	—		—	—	274 ± 15(0.1) IFN-γ spots forming cells per million splenocytes	—		
MGMIGILPDMTPSTEMS	—		—	—	238 ± 5(0.1) IFN-γ spots forming cells per million splenocytes	—		
MWEINGPESVLINTYQW	—		—	289 ± 16 IFN-γ spots forming cells per million splenocytes	—	—		(0.1) μg/ml
NDLGPATAQMALQLFIK	—		—	92 ± 2(1) IFN-γ spots forming cells per million splenocytes	—	—		92 ± 2(1) μg/ml
NPSLRMKWMMAMKYPIT	—		—	—	166 ± 3(0.1) IFN-γ spots forming cells per million splenocytes	—		
PESVLINTYQWIIRNWE	—		—	226 ± 5 IFN-γ spots forming cells per million splenocytes	—	—		(0.1) μg/ml
